Results published in publication PMC11013143, “4-Chloroisocoumarins as Chlamydial Protease Inhibitors and Anti-Chlamydial Agents” (Molecules, 2024).
Read-outs that look alike come from different tables or passages of the source.

Assays:
CtHtrA [1] = biological target: T1, CtHtrA (Chlamydia trachomatis serovar D, UniProt P18584); experiment: CtHtrA protease inhibition assay; type: biochemical; details: for Relative Selectivity: (relative CtHtrA potency)/(relative HLE potency); for IC50: IC50 against CtHtrA; for IC50 / Relative Potency against CtHtrA: control JO146; for Relative Potency against CtHtrA: [IC50 of control]/[IC50 test compound]
T1 construct: made in house; host or cells: E. coli BL21(DE3), pET22b
T1 sequence (P18584 17-497): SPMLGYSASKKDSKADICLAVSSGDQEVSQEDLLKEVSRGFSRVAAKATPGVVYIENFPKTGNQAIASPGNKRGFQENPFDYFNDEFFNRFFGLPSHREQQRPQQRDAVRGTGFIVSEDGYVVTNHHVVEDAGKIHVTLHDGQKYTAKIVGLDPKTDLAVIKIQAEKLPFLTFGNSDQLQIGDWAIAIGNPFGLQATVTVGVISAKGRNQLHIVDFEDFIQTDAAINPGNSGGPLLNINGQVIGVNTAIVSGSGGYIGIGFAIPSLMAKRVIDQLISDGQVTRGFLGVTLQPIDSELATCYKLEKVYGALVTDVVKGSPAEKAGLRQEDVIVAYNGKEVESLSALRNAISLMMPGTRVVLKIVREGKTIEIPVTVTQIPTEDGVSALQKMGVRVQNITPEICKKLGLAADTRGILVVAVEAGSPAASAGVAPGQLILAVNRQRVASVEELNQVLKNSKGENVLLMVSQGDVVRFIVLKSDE
Experimental: The inhibitory activity of compounds 2a–g against CtHtrA was evaluated. […] As these compounds are reportedly covalent inhibitors of serine proteases, a true IC50 is unable to be calculated. Instead, the residual activity of the protease is monitored over time in response to a range of compound concentrations, and an IC50 value is interpolated from a dose–response curve (see Figures S2–S4 and Tables S1 and S2). This IC50 value is then compared to a positive control (JO146 was used for 2a–g, and 2g was used for 6a–h), giving the ‘relative potency’. This is the established method for assessing CtHtrA inhibitory potency. […] This effect may be due to depth restrictions within the S1 subpocket, as kinetic studies on the rates of protease inhibition in HLE were reduced by larger C-3 alkoxy substituents. Chain branching (iso-propyl and sec-butyl substituents) increased the activity, resulting in a 1.4-fold increase for 2e over 2b and a 2.8-fold improvement for 2g over 2c.
CtHtrA was expressed using an procedure adapted from the literature. Recombinant E. coli BL21(DE3) pET22b was grown in LB media containing 100 ug/mL ampicillin to an OD600 of 0.5-0.6 in 5 × 400 mL batches at 37 °C. Isopropyl β-D-1-thioglactopyranoside (1 M, 400 µL, 1 mM final concentration) was added to each flask and incubated at 30 °C with shaking at 150 rpm for an additional 2.5 h. The culture was centrifuged at 4000× g for 15 min at 4 °C, and the cell pellet was harvested and resuspended in lysis buffer (50 mM phosphate, 10 mM imidazole, 500 mM NaCl, 0.1% Triton X-100, 10% glycerol). Lysozyme was added to the suspended cells and was sonicated in 15 cycles of 15 s, with one minute between cycles while maintaining 4 °C, and then centrifuged at 8000× g for 20 min to remove any debris, retaining the supernatant for protein purification.
TALON® metal affinity resin (Takara cat no. 635652, 5 mL) was added to each lysate tube and washed sequentially with lysis buffer (2 × 45 mL) and stringency buffer (4 × 45 mL) and then eluted with elution buffer (2 × 5 mL), allowing incubations at 4 °C for 20 min per wash, and centrifuging at 2500× g and 4 °C between washes to pellet the resin. The eluates were dialyzed in Tris buffer (pH 7.0, 50 mM, 4 L) with magnesium chloride (20 mM) at 4 °C five times over 24 h, with a minimum of three hours per dialysis change. Protein expression and isolation were confirmed with SDS-PAGE Coomassie stained gel, which was examined for the band at the correct size, and a BCA assay to confirm purified protein concentration prior to use.
CtHtrA was added to 25 wells in a black 96-well plate (40–80 µL, 10 µL increments), to which Tris-HCl buffer (50 mM, pH 7.0 with 20 mM MgCl2) was added to bring the total volume to 90 µL for 10 wells and 85 µL for the remaining 15. JO146 (10 µM, 5 µL) was added to 5 wells and JO146 (1 µM, 5 µL) was added to another 5 wells, with DMSO (5 µL) being added to the remaining 5 as a control. The plate was incubated at 37 °C for 10 min before substrate (MCA-ENLHLPLPIIFK-DNP, 10 µL, 1 mg/mL, 50% isopropanol in buffer) was added and analyzed in a TECAN Infinite Pro M200 plate reader with an excitation wavelength of 340 nm and fluorescence measured at 405 nm with four reads per well at 60 s intervals. A minimum volume of CtHtrA granting a fluorescence change of 300 min^−1 was used for subsequent assay.
The determined appropriate volume of CtHtrA in buffer was added to a 96-well non-transparent black plate and diluted to 85 µL with buffer solution. Drug or control (5 µL) at a maximum of 20% DMSO/80% buffer was added to the appropriate well with DMSO controls, and the plate was incubated for 10 min to allow activation by the protein. MCA-ENLHLPLPIIFK-DNP (Mimotopes, Australia, 1 mg/mL, 10 µL) was added and immediately monitored on a TECAN M200 Infinite plate reader at 37 °C every 60 s for 30 min, using the same wavelengths as for the activity evaluation. […]

[2] = biological target: T2, Human Leukocyte Elastase (HLE) (Homo sapiens, UniProt P08246); experiment: HLE protease inhibition assay; type: biochemical; details: for Relative Potency against HLE: [IC50 of JO146]/[IC50 test compound]
T2 construct: purchased Athens Research and Technology 16-15-051200
T2 sequence (P08246 30-247 limits assumed): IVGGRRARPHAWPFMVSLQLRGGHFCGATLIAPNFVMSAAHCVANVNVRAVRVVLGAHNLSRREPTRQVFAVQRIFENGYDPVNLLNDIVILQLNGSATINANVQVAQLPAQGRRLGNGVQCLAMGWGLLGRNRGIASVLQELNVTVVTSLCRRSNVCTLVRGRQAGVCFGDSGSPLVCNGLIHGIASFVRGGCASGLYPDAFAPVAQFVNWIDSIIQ
Experimental: Elastase was purchased from Athens Research and Technology (Cat No. 16-15-051200). Elastase (100 µg) was dissolved in Tris buffer (100 mM Tris, 20 mM CaCl2, pH 8.1, 3.14 mL), giving a concentration of 1.117 µM, and 25 µL was added to each well containing the respective inhibitor. The plate was incubated at 37 °C for 15 min.
N-Suc-AAA-pNA (Sigma Aldrich, Bayswater, Australia, S4760, 100 µL, 1 mg/mL, […]) was added to each well, and the absorbance was monitored every six minutes at 405 nm. The rate of change of absorbance was used as a comparison to controls to determine the % inhibition of protein in Microsoft Excel^TM (v2402), and these values were exported to GraphPad Prism (v8.0.1) for IC50 calculation.

[3] = MTS cell viability assay, HEp-2 cells; type: cell-based, human; details: human, HEp-2 cells, 125 µM, read-out: HEp-2 cell viability, % of DMSO-treated control cells
Experimental: (§1) The cytotoxic effects of the 4-chloroisocoumarin compounds 2a–g and 6a–h (24 h) were tested against HEp-2 and McCoy B cells using the MTS cell viability assay. HEp-2 and McCoy B cells were selected, as these are routinely used for the cultivation of chlamydial species, and low cytotoxicity against host cells is required to evaluate the anti-chlamydial properties of a test compound [27].
(§2) HEp-2 (human epithelial type 2, CCL-23, ATCC®, Virginia, USA) or McCoy B (mouse fibroblast, CRL-1696, ATCC®) cells were grown to 80–100% confluence, and cell density was determined with a haemocytometer. Cells were then diluted to 1 × 10^5 cells/mL, and 100 µL was added to each well in a 96-well plate, with 3 wells left as controls. Cells were grown for 24 h, and the media was removed and then replaced with fresh media containing 0.1% DMSO and the drug for testing in triplicate. Drugs and cells were incubated for 24 h, and then 20 µL of MTS and PMS solution was added and then incubated for a further four hours. Absorbance was measured at 490 nm on a TECAN M200 Infinite plate reader and data were processed using Microsoft Excel^TM with the following equation to determine cell viability relative to DMSO controls. Cellviability%=AbsorbanceDrug−AbsorbanceDye/AbsorbanceDMSO−AbsorbanceDye

HEp-2 cells = experiment: MTS cell viability assay, HEp-2 cells; type: cell-based, human; details: 62.5 and 31.25 µM, 24 h
Experimental: as §1, §2

CtHtrA [4] = biological target: T1, CtHtrA; set-up: method as in PMID 23796320; details: read-out: IC50 against CtHtrA; reversible covalent complex with CtHtrA; cited from earlier work

SMILES | Relative Selectivity (CtHtrA [1]) | IC50 (CtHtrA [1]; Table S2, Batch 1) | Relative Potency against CtHtrA (CtHtrA [1]) | IC50 ([2]; Table S1, variable slope four parameter fit, read-out: IC50 against HLE) | Relative Potency against HLE [2] | viability at 24 h, 125 µM [3] | effect on HEp-2 cell viability (HEp-2 cells) | IC50 (CtHtrA [1]; Table S2, Batch 2) | IC50 [2] | IC50 (CtHtrA [4])
COc1oc(=O)c2ccccc2c1Cl [Compound 2a, 3-Methoxy-4-chloroisocoumarin] | 113.0 | 30.6 µM | 2.33 | 39.5 µM | 0.0207 | 50% | did not produce significant effects |  |  | 
CC(C)[C@H](NC(=O)OC(C)(C)C)C(=O)N1CCCC1C(=O)N[C@@H](C(C)C)P(=O)(Oc1ccccc1)Oc1ccccc1 (some centres unmarked) [JO146, reference compound] | 1.00 | 71.5 µM | 1.00 |  | 1.00 |  |  | 60 µM | 0.817 µM | 12 µM
